Results from publication PMC7037273, “Phytochemical Screening and Antiprotozoal Effects of the Methanolic Berberis Vulgaris and Acetonic Rhus Coriaria Extracts” (Molecules, 2020).
In brackets after ≈: the same amount, converted by molar mass.

Experiments:
B. microti = assay: in vivo chemotherapeutic efficacy in B. microti-infected BALB/c mice
Protocol: MEBV and AERC were examined for their in vivo chemotherapeutic efficacy using B. microti-infected BALB/c mice according to a procedure described elsewhere. Briefly, twenty-five mice were placed in an environment free from pathogens with 22 °C temperature and adjusted humidity and under 12 h light and 12 h darkness and randomly distributed into five groups. All mice in groups 2 through 5 obtained 500 μL of 1 × 10^7 B. microti-iRBC by intraperitoneal (i.p.) injection. Group 1 served as a negative control and was neither infected nor treated. At 1% parasitemia, drug treatment of the mice […]. continuing for five days. Group 2 act as a positive control group and received 95% double-distilled water (DDW) and 5% DMSO. Groups 3 and 4 administered 150 mg/kg body weight (BW) of MEBV and AERC by the oral route, respectively. […] Furthermore, the hematological parameters, including HGB, RBCs, and HCT percentage were examined every four days using an automatic hematology analyzer (Celltac α MEK-6450, Nihon Kohden, Tokyo, Japan) to detect the effect of MEBV and AERC on the retrogression of anemia related to Babesia infection. […]

MDBK cells = assay: cells; type: cell-based, bovine
Protocol: (§1) Cultures of Human foreskin fibroblast (HFF; HFF-1 ATCC® SCRC-1041™), Madin–Darby bovine kidney (MDBK; ECACC) and mouse embryonic fibroblast (NIH/3T3; ATCC® CRL-1658™) cell lines were retrieved from −80 °C stock and cultured continuously at 37 °C under atmosphere 5% CO2 in our laboratory. The NIH/3T3 and HFF cell lines were maintained in Dulbecco Modified Eagle’s Medium (DMEM; Gibco, Grand Island, NY, USA), while MDBK cell line grown in Minimum Essential Medium Eagle (MEM; Gibco). Each medium was treated with 1% glutamine, 10% fetal bovine serum and 0.5% penicillin/streptomycin (Gibco). Every 72 to 96 h, the medium was replaced, and once 80% confluence was reached, the cell collection was performed by sub-culture protocol. To confirm the absence of mycoplasma contamination, 4,6-diamidino-2-phenylindole dihydrochloride (Sigma-Aldrich) stain was used [9].
(§2) The cell viability test was conducted in a 96-well plate as described elsewhere [4, 9, 51, 52]. Briefly, an aliquot of (100 µL) cells was implanted at a concentration of 5 × 10^4 cells/mL in DMEM or MEM with fetal bovine serum and incubated overnight under atmosphere 5% CO2 at 37 °C for attachment. […] After a 24-h incubation, Cell Counting Kits-8 (CCK-8) (10 µL) was added per well followed by the incubation of the plate for another 3 hours and a microplate reader was used to measure the absorbance at 450 nm.

HFF cells = type: cell-based; conditions: human, 24 h, 100 µM
Protocol: as §1, §2

NIH/3T3 cells = conditions: mouse, 24 h, 100 µM
Protocol: as §1, §2

[1] = test system: L. donovani promastigotes; design: method as in PMID 2360830; conditions: read-out: IC50 leishmanicidal effect; cited from earlier work
T. vaginalis = test system: T. vaginalis; design: method as in PMID 29390009; conditions: cited from earlier work
[2] = test system: Trypanosoma brucei brucei; design: method as in PMID 28654013; conditions: cited from earlier work

**Q.** With `CC(=O)NCC(=O)O.CC(=O)NCC(=O)O.N=C(N)c1ccc(N=NNc2ccc(C(=N)N)cc2)cc1` [DMA, diminazene aceturate] as the compound, how does the peak parasitemia level (B. microti; 25 mg/kg BW, 5 days (day 4 to 8 p.i.), B. microti-infected BALB/c mice) read?
**A.** The peak parasitemia level was 5%.

**Q.** And the “inhibition of B. microti multiplication” value (B. microti; 25 mg/kg, eighth day post-infection)?
**A.** Its value is 92%.

**Q.** For `CC(C)/N=c1\cc2n(-c3ccc(Cl)cc3)c3ccccc3nc-2cc1Nc1ccc(Cl)cc1` [CLF, clofazimine], which EC50 (MDBK cells; Bos taurus, MDBK cells, reference drug, read-out: EC50 MDBK cell viability) is on record?
**A.** The EC50 was 34 ± 3.4 µM.

**Q.** Which results are given for `O=C1C(O)=C([C@H]2CC[C@H](c3ccc(Cl)cc3)CC2)C(=O)c2ccccc21` [ATV, atovaquone]?
**A.** effect on cell viability (HFF cells): neither DMA nor ATV (final concentration 100 µM) restricted the viability; effect on cell viability (NIH/3T3 cells): neither DMA nor ATV (final concentration 100 µM) restricted the viability; effect on cell viability (MDBK cells; bovine, 24 h, 100 µM): neither DMA nor ATV (final concentration 100 µM) restricted the viability

**Q.** Which IC50 [1] does the source give for `COc1ccc2cc3[n+](cc2c1OC)CCc1cc2c(cc1-3)OCO2` [berberine] here?
**A.** Its IC50 is 7.1 µM.

**Q.** With `CC(C)=CCCC(C)c1ccc(C)cc1` (stereo not drawn) [α-curcumene] as the compound, how does the “IC50 growth of T. vaginalis” value (T. vaginalis) read?
**A.** The value was 100 µg/mL.

**Q.** And the IC50 antitrypanosomal activity [2]?
**A.** Its IC50 antitrypanosomal activity is 13.38 µg/mL (≈ 66.1 µM).

**Q.** With `C=C1CC/C=C(\C)CC[C@@H]2[C@@H]1CC2(C)C` [β-caryophyllene] as the compound, how does the “IC50 growth of T. vaginalis” value (T. vaginalis) read?
**A.** The value was 100 µg/mL.

**Q.** Which “IC50 growth of T. vaginalis” value (T. vaginalis) does the source give for `C=CCc1ccc(OC)c(OC)c1` [methyleugenol] here?
**A.** Its value is 100 µg/mL.
